From patent publication US7223733B2, “Modulation of TRIP-Br function and method of treating proliferative disorders” (National University of Singapore, priority 2004, dated 2007)
Each block holds one compound with its values, some of them ahead of it. [invdT] = inverted (3'-3') thymidine

Experiments:
WI-38 cells [1] = assay: BrdU incorporation, serum-induced S phase entry of WI-38 cells; type: cell-based, human; conditions: WI-38, 0.1 μM, 20 h; compared to unstimulated cells
Method: (§1) DNA enzyme transfection. WI-38 cells were rendered quiescent by cultivation in serum-free medium for 72 h before being transfected with DNA enzyme (0.1 μM) using Superfect as reported previously (Santiago, F. S., et al. Nat Med 5, 1264-1269 (1999)) in accordance to manufacturer's recommendations (Qiagen).
(§2) Cell proliferation assays. For the BrdU incorporation assays, growth-quiescent WI-38 cells in 96-well dishes were transfected with DNA enzyme and/or 100 ng of pCMV/E2F1, pCMV/DP1, pRSV/Cyclin E, or pCMV/Cdk2 and then exposed to Bromodeoxyuridine (BrdU, 100 μM) in the presence or absence of 10% FBS for 20 h. Bromodeoxyuridine (BrdU) incorporation was monitored with a calorimetric ELISA assay using a cell proliferation kit according to manufacturer's recommendations (Boehringer Mannheim). For manual cell count, growth-quiescent WI-38 cells in 24-well dishes were transfected with DNA enzyme and then exposed to 10% FBS for 72 h. The cells were rinsed with PBS, pH 7.4, and trypsinized, and 10 μl of cell suspension was taken from each sample and mixed with equal volume of trypan blue stain (Sigma, 0.4% w/v in 1×PBS). The number of unstained cells was enumerated manually using a hemocytometer. For colony formation assays, growth-quiescent WI-38 cells in 12-well dishes were transfected with DNA enzyme and then exposed to 10% FBS for 120 h. Cells were stained in situ with crystal violet (0.75% w/v hexamethyl-p-rosaniline chloride [SIGMA], 50% ethanol, 1.75% w/v paraformaldehyde, 0.25% w/v NaCl) for 10 min, and then rinsed thoroughly with deionized water to remove excess stains.
FIG. 13: (A) E-Br1 or E-Br2 suppresses serum-inducible S phase entry. Sub-confluent WI-38 cells were serum-starved for 72 h. Following DNA enzyme transfection, the cultures were re-stimulated with serum and allowed to proliferate in BrdU labeling medium. After 20 h, cells were assayed for BrdU incorporation with a colorimetric ELISA assay. Values represent the average of at least two independent experiments. […] Sub-confluent WI-38 cells were serum-starved for 72 h. […]

WI-38 fibroblasts = assay: Trypan blue exclusion manual cell count of serum-stimulated WI-38 cells; type: cell-based, human; conditions: WI-38, 0.1 μM, 72 h post-stimulation
Method: as §1
as §2, with “Cells were stained in situ with crystal violet (0.75% w/v hexamethyl-p-rosaniline chloride [SIGMA], 50% ethanol, 1.75% w/v paraformaldehyde, 0.25% w/v NaCl) for 10 min, and then rinsed thoroughly with deionized water to remove excess stains.” left out

hTRIP-Br1 mRNA = assay: Semi-quantitative RT-PCR of intact hTRIP-Br1 transcripts in WI-38 cells; type: cell-based, human; conditions: WI-38, 0.1 μM, 16 h post-stimulation with 10% FBS
Method: as §1
(§3) Semi-quantitative RT-PCR. Following various treatments, WI-38 cells in 6-well culture dish were subjected to total RNA extraction using the TRIZOL® Reagent (Life Technologies). Total RNA (4 μg) was reversed transcribed using oligo-dT and M-MLV reverse transcriptase in a total reaction volume of 20 μl. Polymerase Chain Reactions (PCR) were carried out on 3 μl cDNA sample in the presence of […] deoxyribonucleotide triphosphates (dNTPs) and 40 μM of specific primer pairs in a total reaction volume of 50 μl. […] Post-PCR samples were analyzed by agarose gel electrophoresis.
(§4) FIG. 11: (A) hTRIP-Br1 and hTRIP-Br2 expression is serum-inducible. […] At 24 h post-serum re-stimulation, semi-quantitative RT-PCR analysis was performed on total RNA to assess hTRIP-Br1 and hTRIP-Br2 expression. β-actin was included as an internal control. […] Semi-quantitative RT-PCR analysis was performed on total RNA to assess hTRIP-Br1 and hTRIP-Br2 expression. β-actin was included as an internal control. […]

hTRIP-Br2 mRNA = assay: Semi-quantitative RT-PCR of intact hTRIP-Br2 transcripts in WI-38 cells; type: cell-based, human; conditions: WI-38, 0.1 μM, 16 h post-stimulation with 10% FBS
Method: as §1, §3, §4

WI-38 cells [2] = assay: Colony formation assay of WI-38 cells (crystal violet); type: cell-based, human; conditions: WI-38, serum-induced, 72 h
Method: as §1
as §2, with “For colony formation assays, growth-quiescent WI-38 cells in 12-well dishes were transfected with DNA enzyme and then exposed to 10% FBS for 120 h.” left out
FIG. 12: (A) E-Br1 or E-Br2 inhibits cell proliferation. Sub-confluent WI-38 cells were serum-starved for 72 h. Following DNA enzyme transfection, the cultures were re-stimulated with serum and allowed to proliferate. After 72 h, cells were harvested for viable cell count analysis. 10 μl of cell suspension from each sample was mixed with equal volume of 0.4% trypan blue stain. The number of unstained cells was enumerated manually using a hemocytometer. Data represent the average of at least two independent experiments. […] (B) E-Br1 or E-Br2 suppresses colony formation. Sub-confluent WI-38 cells were serum-starved for 72 h. […]

[3] = system: caspase-3 protease activity; assay: Caspase assay with Ac-DEVD-AFC in U2OS cells; type: cell-based, human; conditions: 24 h
Method: Caspase assay. Both adherent and detached cells in 6-well dishes were harvested by centrifugation at 2000 rpm for 15 min at 4° C. The resulting cell pellets were incubated in 50 μl of chilled lysis buffer (Clontech) on ice for 10 min. Cell lysates were incubated in a reaction mix containing 10 mM HEPES, 2.0 mM EDTA, 10 mM KCl, 1.5 mM MgCl2, 1.0 mM PMSF, aprotinine, pepstatin A and leupeptine (20 μM each), 6.0 mM DTT and Ac-DEVD-AFC (4.0 μg/ml). Reactions were allowed to proceed at room temperature. Fluorescence readings were taken at 15 min intervals for 1 h using a spectrofluorometer (excitation wavelength: 400 nm; emission wavelength: 505 nm).
(§5) FIG. 6: Caspase assay. (A) Caspase 3 protease activity in U2OS cells exposed to either Eto (Etoposide) for 24 h or 50 μM decoy peptides for 48 or 72 h, were assayed using the Ac-DEVD-AFC fluorogenic substrate. […] Values represent the average +/− standard deviation of two independent experiments. Control: cells cultured in normal growth medium; Vehicle: cells cultured in the presence of 0.5% DMSO; (B) Western blot analysis of PARP cleavage. U2OS cells were exposed to either Eto (Etoposide) for 24 h or 50 μM decoy peptides for 72 h. Lane 1: Vehicle cells (cultured in the presence of 0.5% DMSO for 24 h); Lane 2: 25 μM Eto; Lane 3: 250 μM Eto; Lane 4: Vehicle (cells cultured in the presence of 0.5% DMSO for 72 h); Lane 5: *SCR; Lane 6: *Br1; Lane 7: *Br2.

PARP cleavage = assay: Western blot analysis of PARP cleavage in U2OS cells; type: cell-based, human; conditions: 25 and 250 μM, 24 h
Method: Denaturing SDS-PAGE and western blotting. Proteins from whole cell lysate and IP complexes were separated using standard denaturing polyacrylamide gel electrophoresis as described previously (Hsu, S. I. H., et al. EMBO J 20, 2273-2285 (2001)).
as §5

U2OS cells = assay: Cell cycle synchronization of U2OS cells, flow cytometry; type: cell-based, human; conditions: 75 ng/ml, 22 h, data not shown
Method: Cell synchronization and cell cycle progression analyses. U2OS cells in 6-well dishes were subjected to nocodazole treatment (75 ng/ml) for 22 h. Thereafter, the nocodazole-arrested cultures were released by washing with 1×PBS and grown in DMEM plus 10% FBS containing either vehicle (0.5% DMSO) or 20 μM decoy peptides. Cells were harvested at 4-h intervals for standard Western blot analyses. For the analysis of Geminin protein profile, mock- or cyclin E/Cdk2-transfected U2OS cells were exposed to nocodazole (75 ng/ml) at 3 h post-transfection for 22 h.

FLAG-TRIP-Br1 protein = assay: Immunoprecipitation assay with TB1-27#2 and peptide competition; type: binding, human; conditions: lysates of transfected U2OS cells
Method: In an immunoprecipitation assay, fifty microliters of Protein A-agarose (Amersham) were incubated with 2 ml of TB1-27#2 spent media overnight. Each aliquot of agarose was washed and added to the lysates of variously transfected U2OS cells. The TB1-27 and Cyr61 peptides were separately added into 2 of the reactions while one of the reactions was probed with mouse monoclonal anti-His antibodies instead of […]. The agarose was harvested and washed the next day, and the bound proteins analyzed by SDS-PAGE. The gel was blotted and detected with anti-FLAG antibodies. The results are shown in FIG. 23 (the left panel contains 1/10th of the input of the pre-cleared U2OS cell lysate while the right panel contains the proteins eluted from the Protein A-agarose). […] Anti-DP-1 was used as a positive control for immunoprecipitation since it is known that TRIP-Br1 interacts directly with DP-1.

FLAG-TRIP-Br1 = assay: Western blot with TB1-27#2 and peptide competition; type: binding, human; conditions: lysates of transfected U2OS cells
Method: For Western blot analysis, U2OS cells transfected with the pcDNA3 vector, pcDNA3 vector with TRIP-Br1 insert or TRIP-Br2 insert were harvested. The lysates were separated in a 10% acrylamide gel and blotted onto a transfer membrane. The blot was cut and probed with a mouse monoclonal anti-FLAG antibody or TB1-27#2. For 2 sections, TB1-27 and Cyr61 peptides were added in addition to TB1-27#2 as a source of competition.

Compound: 5′-C AGCTACTGTGGCTAGCTACAACGACCTGTCAT-3′ (DNA CAGCTACTGTGGCTAGCTACAACGACCTGTCAT; DNA, 3' [invdT], backbone not given here) [E-SCR, reference compound]
BrdU incorporation on serum stimulation (WI-38 cells [1]): approximately twice as much BrdU
effects on WI-38 growth as compared to vehicle-treated cells (WI-38 fibroblasts): no significant effects
serum-inducible steady-state hTRIP-Br1 mRNA level (hTRIP-Br1 mRNA): no effect
serum-inducible steady-state hTRIP-Br2 mRNA level (hTRIP-Br2 mRNA): no effect
colony forming potential (WI-38 cells [2]): colony forming potential similar to the normal and the vehicle-treated controls

Compound: COc1cc([C@@H]2c3cc4c(cc3[C@@H](O[C@@H]3O[C@@H]5CO[C@@H](C)O[C@H]5[C@H](O)[C@H]3O)[C@H]3COC(=O)[C@H]23)OCO4)cc(OC)c1O [Etoposide, etoposide, reference compound]
caspase-3 activity [3]: dose-dependent stimulation of caspase-3 activity several orders of magnitude above baseline
PARP cleavage (PARP cleavage): resulted in PARP cleavage in a dose-dependent manner

Compound: COC(=O)Nc1nc2ccc(C(=O)c3cccs3)cc2[nH]1 [nocodazole]
cells arrested at the G2/M boundary with 4N DNA content (U2OS cells): more than 90%

effect of competing peptide on TB1-27#2 binding to FLAG-TRIP-Br1 in immunoprecipitation (FLAG-TRIP-Br1 protein): abolished the binding
Compound: DPGHTAAVAQAPPAVAS (Immunogenic peptide from human TRIP-Br1; listed as Homo sapiens) [TB1-27]
blocking of TB1-27#2 binding in Western blot (FLAG-TRIP-Br1): able to block the binding
